Reference: US20250099458A1, “USE OF ANTI-IDIOPATHIC PULMONARY FIBROSIS DRUG NINTEDANIB IN TREATMENT OF TUBERCULOSIS” (Beijing Chest Hospital, Capital Medical University, priority 2022, published 2025)

Key:
[1] = tested on: H37Rv in J774A.1 macrophages; assay: Macrophage intracellular bactericidal activity; assay type: cell-based, Mycobacterium tuberculosis; conditions: for CFU / log10 CFU: J774A.1, 72 h
Procedure: The macrophage intracellular bactericidal activity is used to evaluate the anti-tuberculosis activities of BIBF1120 alone and BIBF1120+RFP in combination. The specific operating method includes: collecting J774A.1 macrophages into a 50 ml centrifuge tube, and taking 100 μl of macrophages and 900 μl of a cell culture medium, which are added into a 1.5 ml sterile centrifuge tube for 10-fold dilution; counting under a microscope; diluting macrophages to 4*10^5/ml and gently plating the macrophages into a 48-well clear microwell plate, with 1 ml in each well; culturing in an incubator with 5% of CO2 at 37° C. for 24 h after plating; co-culturing MOI=5:1 and 2*10^6 CFU/MLH37Rv with the macrophages; rinsing 2 times with sterile PBS 4 h later to remove extracellular Mycobacterium tuberculosis, and adding a new RPMI cell culture medium; putting into an incubator with 5% of CO2 at 37° C. and culturing for 72 h. discarding RPMI in the 48-well plate 3 days later, adding 200 μl of 0.1% SDS and placing in the incubator for 5 to 10 min, and adding 800 μl of the cell culture medium into each well and mixing well; and after cell lysis, taking 100 μl from each well for 10-, 100-, 1000-, 100000-fold dilution, and inoculating 100 μl on a 7H10 solid medium, spreading it evenly with a spreader and counting CFUs three weeks later.

[2] = tested on: pulmonary and splenic Mycobacterium tuberculosis (H37Rv strain); assay type: in vivo, C57BL/6 female mice; conditions: after 8 weeks of administration; BIBF1120 added to HRZ
H37Rv strain = assay: In vitro activity on Mycobacterium tuberculosis (Alamar Blue MIC); assay type: cell-based; conditions: H37Rv standard strain, 7H9 medium, 37° C. 7 d, Alamar Blue 24 h

Row | Structure (SMILES) | bacteriostatic effect administered alone ([1]; BIBF1120 alone, 25 ug/ml) | CFU ([1]; Table 1, BIBF1120 12.5 ug/ml) | log10 CFU ([1]; Table 1, BIBF1120 12.5 ug/ml) | CFU ([1]; Table 1, BIBF1120 25 ug/ml) | log10 CFU ([1]; Table 1, BIBF1120 25 ug/ml) | CFU ([1]; Table 1, BIBF1120 50 ug/ml) | log10 CFU ([1]; Table 1, BIBF1120 50 ug/ml) | CFU ([1]; Table 2, BIBF1120 25 ug/ml) | log10 CFU ([1]; Table 2, BIBF1120 25 ug/ml) | sterilizing of the spleen and the lung [2] | MIC (H37Rv strain) [µg/mL] | CFU ([1]; Table 1, RFP 2 ug/ml) | log10 CFU ([1]; Table 1, RFP 2 ug/ml) | CFU ([1]; Table 2, RFP 2 ug/ml) | log10 CFU ([1]; Table 2, RFP 2 ug/ml)
1 | CCS(=O)(=O)O.COC(=O)c1ccc2c(c1)NC(=O)/C2=C(\Nc1ccc(N(C)C(=O)CN2CCN(C)CC2)cc1)c1ccccc1 [BIBF1120, Nintedanib] | no significant bacteriostatic effect | 2400000 | 6.380 | 1462500 | 6.165 | 1077500 | 6.032 | 2750000 | 6.439 | achieves sterilizing of the spleen and the lung | 24.6 |  |  |  | 
2 | CO[C@H]1/C=C/O[C@@]2(C)Oc3c(C)c(O)c4c(O)c(c(/C=N/N5CCN(C)CC5)c(O)c4c3C2=O)NC(=O)/C(C)=C\C=C\[C@H](C)[C@H](O)[C@@H](C)[C@@H](O)[C@@H](C)[C@H](OC(C)=O)[C@@H]1C [RFP, rifampicin] |  |  |  |  |  |  |  |  |  |  |  | 502500 | 5.701 | 202500 | 5.306
